This data set in a line: In vivo pharmacokinetic study in rats (plasma, HPLC). The following applies: SD rats, intragastric, FLU 40 mg/kg alone, as TF-1 (+48 mg/kg TDS) or TF-2 (+96 mg/kg TDS). As to the method: A total of 25 healthy male SD rats were used. After adaptive feeding, rats were randomly divided into five groups (n = 5). […] Blood samples were placed in heparin-pretreated centrifuge tubes. Whole blood was centrifuged at 6,000 rpm for 3 min to separate plasma, which was stored at −20 °C or −80 °C for subsequent analysis. […] The mean plasma concentration-time curves were plotted. The non-compartmental model in DAS 2.1.1 software was used to calculate major pharmacokinetic parameters. The pharmacokinetic interactions after combined medication were evaluated by comparing parameters between monotherapy groups and TF combination groups.

SMILES strings stand for the structures.

Take `CNCCC(Oc1ccc(C(F)(F)F)cc1)c1ccccc1` (stereo not shown) [FLU, Fluoxetine]: the “t1/2z of FLU” value was found to be 6.563 h.

These data come from PMC13382108 (Frontiers in Pharmacology, 2026).
